Results reported in ChEMBL document CHEMBL3046958, “Synthesis and Evaluation of Homologous Analogs of Anticonvulsant 5-Substituted 3,3-Diethyl-4,5-Dighdro-2(3H)-Furanones” (Med Chem Res, 2005).
Active and inactive are the calls of the source. No cut-off for these calls is given here.

Assays:
Mus musculus [1] = experiment: Anticonvulsant activity in Mus musculus CF1 (mouse) assessed as protection against maximal electroshock-induced seizures at 100 to 300 mg/kg measured after 4 hr; type: functional
Mus musculus [2] = experiment: Anticonvulsant activity in Mus musculus CF1 (mouse) assessed as protection against maximal electroshock-induced seizures at 100 to 300 mg/kg measured after 0.5 hr; type: functional
Mus musculus [3] = experiment: (§1) Neurotoxicity in Mus musculus CF1 (mouse) at 100 to 300 mg/kg by rotorod test; type: toxicity, organism-based; set-up: dose 100-300 mg/kg; conditions: mouse, in vivo
Mus musculus [4] = experiment: Anticonvulsant activity in Mus musculus CF1 (mouse) assessed as protection against subcutaneous pentylenetetrazol-induced seizures; type: functional
Mus musculus [5] = experiment: Anticonvulsant activity in Mus musculus CF1 (mouse) assessed as protection against subcutaneous pentylenetetrazol-induced seizures at 100 to 300 mg/kg; type: functional, organism-based
[6] = target: GABA-A receptor; agonist GABA site (Homo sapiens) (UniProt P14867+P47870+P28472+P48169+P34903+P18505+P47869+P31644+Q16445); experiment: Displacement of [3H]TBOB from GABAA receptor (unknown origin) at 10 uM; type: protein-complex assay
Mus musculus [7] = experiment: Anticonvulsant activity in Mus musculus CF1 (mouse) assessed as protection against subcutaneous pentylenetetrazol-induced seizures at 300 mg/kg; type: functional, organism-based; set-up: dose 300 mg/kg
Mus musculus [8] = experiment: Anticonvulsant activity in Mus musculus CF1 (mouse) assessed as protection against maximal electroshock-induced seizures at 300 mg/kg; type: functional, organism-based; set-up: dose 300 mg/kg
[9] = as §1; type: toxicity, organism-based; set-up: dose 100-300 mg/kg; conditions: CF1, mouse, in vivo
Mus musculus [10] = experiment: Neurotoxicity in Mus musculus CF1 (mouse) at 300 mg/kg by rotorod test; type: toxicity, organism-based; set-up: dose 300 mg/kg; conditions: in vivo

CCC1(CC)CC(COC(=O)c2ccc(OC)cc2)OC1=O (centres undefined)
Activity (Mus musculus [1]): inactive | Activity (Mus musculus [2]): inactive | Activity (Mus musculus [3]): Non-toxic | Activity (Mus musculus [4]): 300 mg/kg

CCC(=O)OCCC1CC(CC)(CC)C(=O)O1 (centres undefined)
Activity (Mus musculus [2]): inactive | Activity (Mus musculus [5]): inactive

CCC1(CC)CC(CO)OC1=O (centres undefined)
inhibition [6]: 9.1%

CCC1(CC)CC(COC(=O)c2ccc(C)cc2)OC1=O (centres undefined)
Activity (Mus musculus [1]): inactive | Activity (Mus musculus [2]): inactive | Activity (Mus musculus [3]): Non-toxic | Activity (Mus musculus [5]): inactive

CCCCCCCC(=O)OCCC1CC(CC)(CC)C(=O)O1 (centres undefined)
Activity (Mus musculus [2]): inactive | Activity (Mus musculus [5]): inactive

CCC1(CC)CC(CCNC(=O)c2ccc(C)cc2)OC1=O (centres undefined)
Activity (Mus musculus [2]): inactive | Activity (Mus musculus [5]): inactive

CCC1(CC)CC(CCOC(=O)c2ccc(OC)cc2)OC1=O (centres undefined)
Activity (Mus musculus [2]): inactive | Activity (Mus musculus [5]): inactive

CCCCCCCC(=O)OCC1CC(CC)(CC)C(=O)O1 (centres undefined)
Activity (Mus musculus [1]): inactive | Activity (Mus musculus [2]): inactive | Activity (Mus musculus [3]): Non-toxic | Activity (Mus musculus [5]): inactive

CCC(=O)OCC1CC(CC)(CC)C(=O)O1 (centres undefined)
Activity (Mus musculus [1]): inactive | Activity (Mus musculus [2]): inactive | Activity (Mus musculus [3]): Non-toxic | Activity (Mus musculus [5]): inactive

CCC1(CC)CC(CCOC(=O)c2ccc(C)cc2)OC1=O (centres undefined)
Activity (Mus musculus [7]): Active | Activity (Mus musculus [2]): inactive | Activity (Mus musculus [5]): inactive

CCCCCCCC(=O)NCCC1CC(CC)(CC)C(=O)O1 (centres undefined)
Activity (Mus musculus [2]): inactive | Activity (Mus musculus [5]): inactive

CCC1(CC)CC(COC(=O)c2ccccc2)OC1=O (centres undefined)
Activity (Mus musculus [1]): inactive | Activity (Mus musculus [2]): inactive | Activity (Mus musculus [3]): Non-toxic | Activity (Mus musculus [5]): inactive | inhibition [6]: 12.5%

CCC1(CC)CC(CCNC(=O)c2ccccc2)OC1=O (centres undefined)
Activity (Mus musculus [8]): Active | Activity (Mus musculus [2]): inactive | Activity (Mus musculus [5]): inactive | inhibition [6]: 0.29%

CCC1(CC)CC(CCNC(=O)c2ccc(OC)cc2)OC1=O (centres undefined)
Activity (Mus musculus [2]): inactive | Activity (Mus musculus [5]): inactive

CCC1(CC)CC(CNC(=O)c2ccc(Br)cc2)OC1=O (centres undefined)
ED50 (Mus musculus [1]; CF1, 4 h, dose mg/kg 100-300): 89.9 mg/kg | ED50 (Mus musculus [2]; CF1, 0.5 h, dose mg/kg 100-300): 89.9 mg/kg | TD50 [9]: 285 mg/kg

CCC(=O)NCCC1CC(CC)(CC)C(=O)O1 (centres undefined)
Activity (Mus musculus [2]): inactive | Activity (Mus musculus [5]): inactive | inhibition [6]: 3.62%

CCC1(CC)CC(CCOC(=O)c2ccccc2)OC1=O (centres undefined)
Activity (Mus musculus [2]): inactive | Activity (Mus musculus [5]): inactive | inhibition [6]: 3.86%

CCC1(CC)CC(CCNC(=O)c2ccc(Br)cc2)OC1=O (centres undefined)
Activity (Mus musculus [2]): inactive | Activity (Mus musculus [5]): inactive

CCC1(CC)CC(COC(=O)c2ccc(Br)cc2)OC1=O (centres undefined)
Activity (Mus musculus [1]): inactive | Activity (Mus musculus [2]): inactive | Activity (Mus musculus [3]): Non-toxic | Activity (Mus musculus [5]): inactive

CCC1(CC)CC(CCOC(=O)c2ccc(Br)cc2)OC1=O (centres undefined)
Activity (Mus musculus [10]): Toxic | Activity (Mus musculus [2]): inactive | Activity (Mus musculus [5]): inactive
